Test results published in paper PMC6413231, “o-Vanillin Derived Schiff Bases and Their Organotin(IV) Compounds: Synthesis, Structural Characterisation, In-Silico Studies and Cytotoxicity” (International Journal of Molecular Sciences, 2019).
Like-named read-outs stand apart in the source and are kept apart here.

What was measured:
[1] = tested on: U87 (glioblastoma) cancer cells; test: MTT growth inhibition assay, U87; type: cell-based; settings: 72 h, ± standard error, read-out: Growth Inhibition Concentration, GI50
Description: (§1) The Schiff bases and their organotin(IV) compounds were screened for in vitro cytotoxicity against a panel of 12 cancer cell lines: EJ-28 (muscle invasive bladder), RT-112 (minimum-invasive bladder), HT29 (colon), U87 and SJ-G2 (glioblastoma), MCF-7 (breast), A2780 (ovarian), H460 (lung), A431 (skin), DU145 (prostate), BE2-C (neuroblastoma), MIA (pancreatic) and one normal breast cell line (MCF-10A) using the MTT metabolic assay (Figure 6). After 72 h of incubation, a dose-dependent […] effect towards the cancer cell lines was measured at very low micromolar (µM) concentrations of the compounds. The growth inhibition concentration of the Schiff bases and their organotin(IV) compounds required to inhibit 50% cell proliferation relative to the cells that were treated with DMSO (control) are given in Table 2. The stability of these compounds was assessed in DMSO as well as in a mixture of DMSO-H2O. The absorbance obtained from UV-vis spectroscopy analysis was monitored for 72 h, and an unchanged pattern in the spectra was indicative that the compounds were stable in both the solvent systems tested.
(§2) For HT29 (colon), U87 and SJ-G2 (glioblastoma), MCF-7 (breast), A2780 (ovarian), H460 (lung), A431 (skin), Du145 (prostate), BE2-C (neuroblastoma), MIA (pancreas) cell lines and one normal breast cell line, MCF-10A (normal breast), the MTT assays were performed using the following method:
(§3) Stock solutions were prepared as follows and stored at −20 °C: Trial compounds were stored as 10 mM solutions in DMSO. All cell lines were cultured in a humidified atmosphere 5% CO2 at 37 °C. The cancer cell lines were maintained in Dulbecco’s modified Eagle’s medium (DMEM) (Trace Biosciences) supplemented with 10% foetal bovine serum, 10 mM sodium bicarbonate, penicillin (100 IU/mL), streptomycin (100 μg/mL) and glutamine (4 mM). The normal cell line, MCF-10A was cultured in DMEM:F12 (1:1) cell culture media, 5% heat inactivated horse serum, supplemented with penicillin (50 IU/mL), streptomycin (50 μg/mL), 20mM Hepes, L-glutamine (2 mM), epidermal growth factor (20 ng/mL), hydrocortisone (500 ng/mL), cholera toxin (100 ng/mL) and insulin (10 μg/mL).
(§4) Cells in logarithmic growth were transferred to 96-well plates. Cytotoxicity was determined by plating cells in duplicate in 100 μL medium at a density of 2500–4000 cells/well. On day 0 (24 h after plating), when the cells were in logarithmic growth, 100 μL medium, with or without the test agent, was added to each well. After 72 h drug exposure, growth inhibitory effects were evaluated using the MTT (3-[4,5-dimethylthiazol-2-yl]-2,5-diphenyltetrazolium bromide) assay and absorbance read at 540 nm. Percentage growth inhibition was determined at a fixed drug concentration of 25 μM. A value of 100% was indicative of complete cell growth inhibition. Those analogues showing appreciable percentage growth inhibition underwent further dose-response analysis allowing for the calculation of a GI50 value. This value is the drug concentration at which cell growth is 50% inhibited based on the difference between the optical density values on day 0 and those at the end of drug exposure.

[2] = tested on: Du145 (prostate) cancer cells; test: MTT growth inhibition assay, Du145; type: cell-based; settings: ± standard error, read-out: Growth Inhibition Concentration, GI50
Description: as §1, §2, §3, §4

[3] = tested on: EJ-28 (muscle invasive bladder) cancer cells; test: MTT cytotoxicity assay, EJ-28; type: cell-based, human; settings: EJ-28 cells, 72 h, ± standard error, read-out: Growth Inhibition Concentration, GI50
Description: as §1
(§5) The inhibitory effect of the synthesised compounds on the growth of bladder (EJ-28 and RT-112) cancer cells was evaluated by MTT assay. […] RT-112 and EJ-28, human bladder cancer cell lines used in this study (ATCC, Manassas, VA, USA) were cultured in RPMI-1640 (High glucose) medium supplemented with 10% fetal bovine serum containing 1% penicillin. The cells were cultured at 37 °C in a humidified atmosphere of 5% CO2 in air. Cells were seeded in 96-well plates at 6000 cells per well for 24 h, then they were treated with different concentrations of compounds for 72 h. The medium was subsequently removed and the wells were washed with 200 µL of phosphate buffer saline. Aliquots of 20 µL of 3-(4,5-dimethylthiazol-2-yl)-2,5-diphenyltetrazolium bromide (MTT) was added to each well and incubated for 4 h at 37 °C. Aliquots of 200 µL of media was then removed from each well and 200 µL of DMSO was added. Optical density (OD) was measured using an ELISA plate reader at 570 nm. Control wells (100% viability), containing media and DMSO, were included in all the experiments. All data points represented an average of triplicate assays. Cytotoxicity was expressed as CD50, i.e., the concentration that reduced the absorbance of treated cells by 50% with reference to the control (untreated cells).

[4] = tested on: RT-112 (minimum-invasive bladder) cancer cells; test: MTT cytotoxicity assay, RT-112; type: cell-based, human; settings: RT-112 cells, 72 h, ± standard error, read-out: Growth Inhibition Concentration, GI50
Description: as §1, §5

[5] = tested on: HT29 (colon) cancer cells; test: MTT growth inhibition assay, HT29; type: cell-based; settings: ± standard error, read-out: Growth Inhibition Concentration, GI50
Description: as §1, §2, §3, §4

[6] = tested on: A2780 (ovarian) cancer cells; test: MTT growth inhibition assay, A2780; type: cell-based; settings: 72 h, ± standard error, read-out: Growth Inhibition Concentration, GI50
Description: as §1, §2, §3, §4

[7] = tested on: B-DNA (PDB ID: 1BNA) dodecamer d(CGCGAATTCGCG)2; parameters: method as in PMID 27649452; settings: comparison value for cisplatin; cited from earlier work
A431 (skin) cancer cells = test: MTT growth inhibition assay, A431; type: cell-based; settings: ± standard error, read-out: Growth Inhibition Concentration, GI50
Description: as §1, §2, §3, §4

H460 (lung) cancer cells = test: MTT growth inhibition assay, H460; type: cell-based; settings: ± standard error, read-out: Growth Inhibition Concentration, GI50
Description: as §1, §2, §3, §4

[8] = tested on: MCF-7 (breast) cancer cells; test: MTT growth inhibition assay, MCF-7; type: cell-based; settings: 72 h, ± standard error, read-out: Growth Inhibition Concentration, GI50
Description: as §1, §2, §3, §4

[9] = tested on: MIA (pancreatic) cancer cells; test: MTT growth inhibition assay, MIA; type: cell-based; settings: 72 h, ± standard error, read-out: Growth Inhibition Concentration, GI50
Description: as §1, §2, §3, §4

[10] = tested on: BE2-C (neuroblastoma) cancer cells; test: MTT growth inhibition assay, BE2-C; type: cell-based; settings: 72 h, ± standard error, read-out: Growth Inhibition Concentration, GI50
Description: as §1, §2, §3, §4

[11] = tested on: SJ-G2 (glioblastoma) cancer cells; test: MTT growth inhibition assay, SJ-G2; type: cell-based; settings: MTT, 72 h, ± standard error, read-out: Growth Inhibition Concentration, GI50
Description: as §1, §2, §3, §4

[12] = tested on: MCF-10A (normal breast) cell line; test: MTT growth inhibition assay, MCF10A; type: cell-based; settings: Homo sapiens, MCF-10A, MCF10A normal breast cells, 72 h, ± standard error, read-out: Growth Inhibition Concentration, GI50
Description: as §1, §2, §3, §4

N.N.[Cl][Pt][Cl] [Cisplatin, reference compound]
GI50 [1]: 4 ± 1 µM | GI50 ([2]; 72 h): 1.2 ± 0.1 µM | GI50 [3]: 3.97 ± 0.48 µM | GI50 [4]: 3.56 ± 0.88 µM | GI50 ([5]; 72 h): 11 ± 2 µM | GI50 [6]: 1 ± 0.1 µM | lowest binding energy (docking with DNA) [7]: -8.65 kcal/mol | GI50 (A431 (skin) cancer cells; 72 h): 2.4 ± 0.3 µM | GI50 (H460 (lung) cancer cells; 72 h): 0.9 ± 0.2 µM | GI50 ([8]; MCF-7 cells): 6.5 ± 0.8 µM | GI50 [9]: 8 ± 1 µM | GI50 [10]: 1.9 ± 0.2 µM | GI50 [11]: 0.4 ± 0.1 µM

COc1cccc(/C=N/NC(=S)SCc2ccccc2C)c1O [S2MoVaH, S-2-Methybenzyl-β-N-(2-hydroxy-3-methoxybenzylmethylene) Dithiocarbazate]
GI50 ([1]; Homo sapiens, U-87 MG): 4.3 ± 0.3 µM | GI50 ([2]; Homo sapiens, DU-145, 72 h): 4.1 ± 0.09 µM | GI50 [12]: 3.1 ± 0.07 µM | GI50 ([3]; Homo sapiens): 3.4 ± 0.47 µM | GI50 ([4]; Homo sapiens): 4.6 ± 0.45 µM | melting point: 180 to 183 °C | GI50 ([5]; Homo sapiens, HT-29, 72 h): 3.9 ± 0.71 µM | GI50 ([6]; Homo sapiens): 3.2 ± 0.15 µM | GI50 (A431 (skin) cancer cells; Homo sapiens, A-431, 72 h): 3.8 ± 0.03 µM | GI50 (H460 (lung) cancer cells; Homo sapiens, NCI-H460, 72 h): 4.3 ± 0.12 µM | GI50 ([8]; Homo sapiens, MCF7, MCF-7 cells): 2.7 ± 0.21 µM | GI50 ([9]; Pancreatic cancer cell): 4.9 ± 0.37 µM | GI50 ([10]; Homo sapiens, BE(2)-C): 3.1 µM | GI50 [11]: 3 ± 0.09 µM
